According to article PMC11747586, “Synthesis and Investigation of Peptide–Drug Conjugates Comprising Camptothecin and a Human Protein‐Derived Cell‐Penetrating Peptide” (Chemical Biology & Drug Design, 2025):
Where “and” joins values, the source holds several entries; their conditions need not be identical. Equal values may be shown once. Residues, ends and D or L forms follow the SMILES beside them. *: point of attachment. S(CH2)2OCO2(CPT-20-yl) = CC[C@@]1(OC(=O)OCCS*)C(=O)OCc2c1cc1n(c2=O)Cc2cc3ccccc3nc2-1

Assays:
[1] = Cytotoxicity (resazurin) against cultured HaCaT noncancerous cells; conditions: human
Experimental: (§1) Cell death was measured using resazurin, with 0.1% (v/v) Triton X‐100 as a control for 100% cell death. Data points are expressed as mean ± SD for at least two biological replicates. Dose response curves were fitted using [inhibitor] versus response with variable slope, Graphpad Prism v10. […] RBC lysis was determined by measuring released hemoglobin, with 0.1% (v/v) Triton X‐100 as a control for 100% cell lysis. Melittin was included as a membranolytic control. Data points are expressed as mean ± SD for two technical replicates. Dose response curves were fitted using [inhibitor] versus response with variable slope, Graphpad Prism v10. […] CC50 values are expressed as mean (SEM). […]
(§2) HaCaT cells were grown in DMEM medium and HT144 cells were grown in RPMI medium supplemented with 2 mM L-glutamine and 10 mM sodium pyruvate. Media were supplemented with 10% (v/v) fetal bovine serum, 100 units/mL of penicillin and […] of streptomycin. Flasks of cultured cells were maintained in a humidified incubator (37 °C, 5% CO2) and passaged every 2–3 days to maintain cultures between 20–90% confluence. Cell line identity was verified by comparing […]
(§3) STR profiles of the cell lines against database entries from the DSMZ-German collection of microorganisms and cell cultures, GmBH https://celldive.dsmz.de/str/browse.
Toxicity to the HT144 and HaCaT cell lines was tested following peptide treatment by measuring the metabolism of resazurin into fluorescent resorufin. The assays were performed with 5000 cells/well (96-well plate) in serum free media. Cells were incubated with serially diluted peptides, PDCs or drugs for 72 h or 24 h (37 °C, 5% CO2). PBS and 0.1% (v/v) Triton X-100 were included as controls for 0% and 100% toxicity. Resazurin was added at 0.02% (w/v) final concentration 2 h prior to the assay end point. Fluorescence (λex = 560 nm, λem = 585 nm) was measured using a Tecan infinite M1000Pro multiplate reader. Percentage cytotoxicity was calculated relative to 0% and 100% controls.
Dose-response curves were fitted and CC50 values were determined using [inhibitor] vs response with four parameters with the top constrained to 100% (GraphPad Prism version 10.0.2). Data was collected as three biological replicates, with experiments conducted on different days.
(§4) Red blood cell (RBC) lysis
Human RBCs and serum were obtained from healthy volunteers via the Red Cross Lifeblood, Brisbane, Australia. RBCs were washed three times with PBS and stored in culture medium (RPMI

HT144 (melanoma) cells = assay: cells
Experimental: Cell death was measured using resazurin, with 0.1% (v/v) Triton X‐100 as a control for 100% cell death. Data points are expressed as mean ± SD for at least two biological replicates. Dose response curves were fitted using [inhibitor] versus response with variable slope, Graphpad Prism v10. […] RBC lysis was determined by measuring released hemoglobin, with 0.1% (v/v) Triton X‐100 as a control for 100% cell lysis. Melittin was included as a membranolytic control. Data points are expressed as mean ± SD for two technical replicates. Dose response curves were fitted using [inhibitor] versus response with variable slope, Graphpad Prism v10. […] CC50 values are expressed as mean (SEM).
Cell death was measured using resazurin, with 0.1% (v/v) Triton X-100 as a control for 100% cell death. Data points are expressed as mean ± SD for at least two biological replicates. CC50 values are expressed as mean (SEM). Note: CPT-dipeptide-PDIP was not included in this study. c[A]PDIP is a desulfurized variant of cPDIP 2 (see Table S1) to prevent the presence of free thiol during assays. […]
as §2, §3
Toxicity to the HT144 and HaCaT cell lines was tested following peptide treatment by measuring the metabolism of resazurin into fluorescent resorufin. The assays were performed with 5000 cells/well (96-well plate) in serum free media. Cells were incubated with serially diluted peptides, PDCs or […]

human RBCs = assay: Red blood cell (RBC) lysis, released hemoglobin; conditions: 72 h
Experimental: as §1, §4
Human RBCs and serum were obtained from healthy volunteers via the Red Cross Lifeblood,
Brisbane, Australia. RBCs were washed three times with PBS and stored in culture medium (RPMI

[2] = Parallel artificial membrane permeability assay (PAMPA); assay type: in vitro ADME; conditions: 4 h; for % recovered (soluble fractions) / Papp at 4 h, 4 μM: 4 μM; for % recovered (soluble fractions): combined apical and basolateral fractions; for Papp at 4 h, 4 μM: PAMPA, apical to basolateral, read-out: apparent permeability (Papp); for degradation during PAMPA experiment: cell-free, PBS, 37 °C
Experimental: FIGURE 4 (A) Membrane permeability and cellular uptake of PDCs, scaffold peptides, and CPT. Compounds were added to PAMPA wells (4 μM) and incubated for 4 h. Supernatant from apical and basolateral sides of the membrane were collected and analyzed using LC–MS. The amount in the combined soluble fractions was compared to the starting amount to determine % recovery, and the apparent permeability (Papp) was calculated as before (Sevin et al. [2013]). Data is expressed as mean ± SD from a single experiment with three technical replicates. (B) Internalization/cell membrane association of PDCs 12–14 and PDIP with HT144 cells. Cells were treated with PDIP or PDCs (4 μM) for 1 h, washed to remove extracellular compound, then extracted with 75% (v/v) MeCN in mQH2O (containing 1.75% (v/v) TFA), to recover soluble peptide or PDC from precipitated cell proteins. The relative amount of internalized peptide or PDC was determined by integrating area under the curve (AUC) for the [M + 6H]^6+ m/z peak (for the intact mass) using time of flight–mass spectrometry (see Figure S2). […] Data is expressed as mean ± SD from a single experiment with three technical replicates for each treatment and control and was analyzed with ANOVA (Tukey multiple comparisons; **p < 0.01, *p < 0.05). (C) Detection of intracellular CPT following 6 h treatment of HT144 cells with CPT and PDCs 12 and 14. […] Data is expressed as mean ± SD from a single experiment with three technical replicates for each treatment and was analyzed with ANOVA (Fisher multiple paired comparisons; **p < 0.01, *p < 0.05). TEXT PRINTED IN THE PICTURE: (A) PDIP: % recovered (soluble fractions): 94 | (A) 12: % recovered (soluble fractions): 58 | (A) 14: % recovered (soluble fractions): 33 | (A) 15: % recovered (soluble fractions): 40 | (A) c[A] PDIP: % recovered (soluble fractions): 34 | (A) CPT: % recovered (soluble fractions): 92 […]
For the first assay, the PDCs (12–15), scaffold peptides and CPT (4 μM) were added to the apical side of PAMPA monolayers and incubated for 4 h. […] PDIP, CPT, and PDCs 12 and 14 had high permeability (Papp ≥ 2 × 10^−6 cm/s), highlighting that these PDCs maintain membrane permeability with the CPT cargo attached. […] Reliable permeability data were not obtained for PDC 13 because of poor recovery of the PDC from soluble fractions, and degradation during the 4 h PAMPA experiment. […] Instability of the carbonate linkage within CPT conjugates containing a dipeptide linker has been previously reported (Walker et al. [2002]), highlighting the potential incompatibility of this drug–linker combination for CPT PDCs. Considering the observed degradation of 13 in the cell‐free assay, it is also possible that extracellular degradation occurred during the cytotoxicity assays.
Parallel artificial membrane permeability assay (PAMPA)
PAMPA was performed according to the manufacturer instructions for the BD Gentest pre-coated PAMPA plate system (BD Biosciences), as previously described.16 Briefly, peptides and PDCs (4 μM in PBS) were added to the apical side of PAMPA wells and incubated for 4 h at 37 °C, 5% CO2 with 95% humidity. Soluble fractions were recovered from the apical and basolateral sides, and compound concentration was quantified using a Shimadzu LCMS-2020 instrument with a Phenomenex 5 µm C18 / 300 Å / 150 x 2 mm LC column. Data was collected from three technical replicates for each compound. The % recovery was determined from (combined from apical and basolateral fractions) relative to the starting concentration:
Recovery rate : R (%) = (C஺ ×V஺ +C஻ ×V஻ )× 100 where CA and CB are the apical and basolateral concentrations (µM), VA and VB are the apical and basolateral volumes (mL), and C0 is the initial concentration (µM).
The apparent permeability coefficient (Papp) was calculated using the following equations17 and where A is the membrane surface area (cm2): […]

| Compound | CC50 at 72 h [1] | cytotoxic activity against HT144 at 24 h (HT144 (melanoma) cells; 24 h incubation, 16 nM to 2 μM (CPT, PDCs), up to 32 μM (peptides)) | CC50 (HT144 (melanoma) cells; Homo sapiens, HT-144, 72 h, read-out: CC50 (half maximal cytotoxicity concentration) HT144) | RBC lysis (human RBCs; concentration range 16 nM—2 μM) | % recovered (soluble fractions) [2] | Papp at 4 h, 4 μM [2] | HC10 (minimal hemolytic concentration) RBC (human RBCs; human RBCs 0.25% v/v) | concentration that completely lysed the RBCs (human RBCs; human RBCs) | degradation during PAMPA experiment [2] |
| --- | --- | --- | --- | --- | --- | --- | --- | --- | --- |
| CC[C@@]1(O)C(=O)OCc2c1cc1n(c2=O)Cc2cc3ccccc3nc2-1 [CPT, Camptothecin] | 0.57 µM | absence of activity | 0.38 µM | did not lyse RBCs | 92% and > 90% | ≥ 2 ×10⁻⁶ cm/s |  |  |  |
| CC[C@H](C)[C@H](NC(=O)CN)C(=O)NCC(=O)N[C@@H](C)C(=O)N[C@H](C(=O)N[C@@H](CC(C)C)C(=O)N[C@@H](CCCCN)C(=O)N[C@H](C(=O)N[C@@H](CC(C)C)C(=O)N[C@H](C(=O)N[C@H](C(=O)NCC(=O)N[C@@H](CC(C)C)C(=O)N1CCC[C@H]1C(=O)N[C@@H](C)C(=O)N[C@@H](CC(C)C)C(=O)N[C@H](C(=O)N[C@@H](CO)C(=O)N[C@@H](Cc1c[nH]c2ccccc12)C(=O)N[C@H](C(=O)N[C@@H](CCCCN)C(=O)N[C@@H](CCCNC(=N)N)C(=O)N[C@@H](CCCCN)C(=O)N[C@@H](CCCNC(=N)N)C(=O)N[C@@H](CCC(N)=O)C(=O)N[C@@H](CCC(N)=O)C(N)=O)[C@@H](C)CC)[C@@H](C)CC)[C@@H](C)O)[C@@H](C)O)C(C)C)C(C)C [Melittin] |  |  |  |  |  |  | 1.8 µM | 8 µM |  |
| CC[C@H](C)[C@@H]1NC(=O)[C@H](CCCCN)NC(=O)[C@H](CCCCN)NC(=O)[C@H](Cc2ccc(O)cc2)NC(=O)[C@H](CC(C)C)NC(=O)[C@@H]2CCCN2C(=O)CNC(=O)CNC(=O)[C@@H](NC(=O)CN)CSSC[C@@H](C(=O)N[C@@H](CCC(=O)O)C(=O)N[C@@H](CO)C(N)=O)NC(=O)[C@H](CC(C)C)NC(=O)[C@H](CCCCN)NC(=O)[C@H](CCCCN)NC(=O)[C@H]([C@@H](C)CC)NC(=O)[C@H]([C@@H](C)CC)NC(=O)[C@H](CCCCN)NC(=O)[C@H](CCCCN)NC(=O)[C@H](Cc2ccc(O)cc2)NC(=O)[C@H](CC(C)C)NC(=O)[C@@H]2CCCN2C(=O)[C@H](C)NC(=O)CNC(=O)CNC(=O)[C@H](Cn2cc(COCCC(=O)N[C@H](C(=O)N[C@@H](CCCNC(N)=O)C(=O)Nc3ccc(COC(=O)O[C@]4(CC)C(=O)OCc5c4cc4n(c5=O)Cc5cc6ccccc6nc5-4)cc3)C(C)C)nn2)NC(=O)CNC(=O)CNC(=O)[C@H](CO)NC(=O)[C@H](CCC(=O)O)NC(=O)[C@H](CC(C)C)NC(=O)[C@H](CC(C)C)NC(=O)[C@H](CCCCN)NC(=O)[C@H](CCCCN)NC(=O)[C@H]([C@@H](C)CC)NC1=O [PDC 13] |  |  |  |  | poor recovery |  |  |  | degradation |
| CC[C@H](C)[C@@H]1NC(=O)[C@H](CCCCN)NC(=O)[C@H](CCCCN)NC(=O)[C@H](Cc2ccc(O)cc2)NC(=O)[C@H](CC(C)C)NC(=O)[C@@H]2CCCN2C(=O)[C@H](C)NC(=O)CNC(=O)CNC(=O)[C@H](CSSCCOC(=O)O[C@]2(CC)C(=O)OCc3c2cc2n(c3=O)Cc3cc4ccccc4nc3-2)NC(=O)CNC(=O)CNC(=O)[C@H](CO)NC(=O)[C@H](CCC(=O)O)NC(=O)[C@H](CC(C)C)NC(=O)[C@H](CC(C)C)NC(=O)[C@H](CCCCN)NC(=O)[C@H](CCCCN)NC(=O)[C@H]([C@@H](C)CC)NC(=O)[C@H]([C@@H](C)CC)NC(=O)[C@H](CCCCN)NC(=O)[C@H](CCCCN)NC(=O)[C@H](Cc2ccc(O)cc2)NC(=O)[C@H](CC(C)C)NC(=O)[C@@H]2CCCN2C(=O)[C@H](C)NC(=O)CNC(=O)CNC(=O)[C@H](CO)NC(=O)CNC(=O)CNC(=O)[C@H](CO)NC(=O)[C@H](CCC(=O)O)NC(=O)[C@H](CC(C)C)NC(=O)[C@H](CC(C)C)NC(=O)[C@H](CCCCN)NC(=O)[C@H](CCCCN)NC(=O)[C@H]([C@@H](C)CC)NC1=O [PDC 15] (cyclo(APLYKKIIKKLLESGGC(S(CH2)2OCO2(CPT-20-yl))GGAPLYKKIIKKLLESGGSGG)) |  |  |  |  | 40% | ~0.9 ×10⁻⁶ cm/s |  |  | Negligible degradation |
